Counter-ions that a name gives are not always drawn.
Tested on: PGE2 production
Test: Rat air-pouch model for acute inflammation (PGE2 in exudate by ELISA)
Assay type: in vivo, Sprague-Dawley rats
Settings: oral gavage 0.01 mmol/kg 2 h before carrageenan, exudate 4 h after carrageenan, 6 rats/group
Experimental: A study of chromene release is assessed by measurement of PGE2 levels, which are indicative of inflammatory response.
Animals: Sprague-Dawley rats (Charles River Laboratories, R #3234, PO #738990, male, 160-180 g) are received, individually examined, and housed in cages of five rats each. The rats are ear notched for identification purposes.
Compounds and dosing solutions: The vehicle is prepared by dissolving 40 g (2-hydroxypropyl)-[…] making a 25% solution which is filter sterilized (0.2 μm, Nalgene, Cat. 151-4020, lot 1095610). […]
Day 6—Compound administration and carrageenan insult: At commencement of the study, each rat is weighed and sorted into treatment groups of 6 rats/group based upon average weight. […] The pouch is gently massaged, the exudate immediately removed, and exudate volume recorded. […]
Data analysis: The exudate samples are thawed to room temperature and assayed by ELISA for PGE2 (R&D Systems, Cat. KGE004B, lot 307711). Statistical significance of treatments on mean exudate volumes are determined by comparison of means for treatment groups with vehicle group. Mean cytokine concentrations and standard deviations are determined for each group. […] Statistical significance (p-value) is calculated vs control groups by Student's t-Test. […]

## CC(=O)NC(CCCNC(=N)N)C(=O)OCOC(=O)C1=Cc2cc(Cl)c(C(C)(C)C)cc2OC1C(F)(F)F (stereo not shown) [Example 33a, trifluoroacetate salt]
  % Inhibition of PGE2 production relative to control (+/−S.D.): 75.7 (+/−11.9) %

From US20150197500A1, “NO-RELEASING GUANIDINE-CHROMENE CONJUGATES” (Euclises Pharmaceuticals, Inc., priority 2014, published 2015)
